Biological target: T1, recombinant human E-selectin/CD63E Fc Chimera (Homo sapiens, UniProt P16581)
T1 construct: Fc (human IgG Fc fusion partner); purchased R & D systems
Experiment: E-Selectin Activity - Analysis by SPR
Type: binding
Conditions: Biacore X100, E-selectin captured on anti-human IgG (Fc) chip
Procedure: Surface Plasmon Resonance (SPR) measurements were performed on a Biacore X100 instrument (GE Healthcare). A CM5 sensor chip (GE Healthcare) was used for the interaction between E-selectin and GMI compound. Anti-human IgG (Fc) antibody (GE Healthcare) was immobilized onto the chip by amine coupling according to the manufacturer's instructions. In brief, after a 7-min injection (flow rate of 5 μl/min) of 1:1 mixture of N-ethyl-N′-(3-dimethylaminopropyl) carbodiimide hydrochloride and N-hydroxysuccinimide, anti-human IgG (Fc) antibody (25 μg/ml in 10 mM sodium acetate buffer, pH 5.0) was injected using a 6-min injection at 5 μl/min. Remaining activated groups were blocked by injecting 1 M ethanolamine/HCl, pH 8.5. The recombinant human E-selectin/CD63E Fc Chimera (50 μg/ml) (R & D systems) was injected into the experimental cell until 6000-7000 RU was captured onto the antibody surface. No recombinant human E-selectin/CD63E was injected into the control cell. Increasing concentrations of GMI compound samples were injected at 30 μl/min into both flow cells and all sensorgrams were recorded against the control. Regeneration of the anti-human IgG (Fc) surface was achieved by injecting 3M magnesium chloride, followed by 50 mM sodium hydroxide. Data were analyzed using Biacore X100 evaluation/BIA evaluation 4.1.1 software (GE Healthcare) and Graphad prism 6 software.

T1 sequence (P16581 with tags, fused parts or gaps limits assumed): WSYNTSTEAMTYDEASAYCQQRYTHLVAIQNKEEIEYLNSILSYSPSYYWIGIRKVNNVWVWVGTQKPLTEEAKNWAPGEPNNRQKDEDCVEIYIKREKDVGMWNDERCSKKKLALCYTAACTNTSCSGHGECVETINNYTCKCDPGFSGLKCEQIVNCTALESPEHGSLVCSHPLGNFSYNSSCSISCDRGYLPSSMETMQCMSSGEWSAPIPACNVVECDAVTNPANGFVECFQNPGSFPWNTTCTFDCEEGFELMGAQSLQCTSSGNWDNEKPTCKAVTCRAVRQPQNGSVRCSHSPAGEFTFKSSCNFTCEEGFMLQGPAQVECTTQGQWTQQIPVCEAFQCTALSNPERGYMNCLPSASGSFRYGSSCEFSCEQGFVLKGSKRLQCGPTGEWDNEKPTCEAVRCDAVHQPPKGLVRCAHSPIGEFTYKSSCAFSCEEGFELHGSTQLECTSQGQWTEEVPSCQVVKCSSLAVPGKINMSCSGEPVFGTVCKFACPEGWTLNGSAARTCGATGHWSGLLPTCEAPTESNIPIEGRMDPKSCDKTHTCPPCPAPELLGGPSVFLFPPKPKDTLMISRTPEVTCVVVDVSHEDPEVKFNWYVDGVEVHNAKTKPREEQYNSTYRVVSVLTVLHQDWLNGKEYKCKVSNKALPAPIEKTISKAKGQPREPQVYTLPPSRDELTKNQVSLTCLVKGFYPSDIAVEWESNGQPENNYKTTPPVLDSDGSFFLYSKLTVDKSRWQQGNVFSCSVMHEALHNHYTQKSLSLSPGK

SMILES | Kd [nM]
CCC1CC(C(=O)NCCNC(=O)c2cn(CCOCCC(=O)NCCCC[C@H](NC(=O)CCOCCn3cc(C(=O)NCCNC(=O)C4CC(CC)[C@@H](O[C@@H]5OC(C)[C@@H](O)[C@H](O)C5O)[C@H](O[C@@H]5O[C@@H](CO)[C@H](O)C(O[C@@H](CC6CCCCC6)C(=O)O)C5NC(C)=O)C4)nn3)C(=O)O)nn2)C[C@@H](O[C@@H]2O[C@@H](CO)[C@H](O)C(O[C@@H](CC3CCCCC3)C(=O)O)C2NC(C)=O)[C@@H]1O[C@@H]1OC(C)[C@@H](O)[C@H](O)C1O (stereo partly shown) [Compound 38] | 6.4
CCC1CC(C(=O)NCCNC(=O)c2cn(CCOCCOCCOCCn3cc(C(=O)NCCNC(=O)C4CC(CC)C(OC5OC(C)C(O)C(O)C5O)C(OC5OC(CO)C(O)C(OC(CC6CCCCC6)C(=O)N6CCC6)C5NC(C)=O)C4)nn3)nn2)CC(OC2OC(CO)C(O)C(OC(CC3CCCCC3)C(=O)N3CCC3)C2NC(C)=O)C1OC1OC(C)C(O)C(O)C1O (stereo not shown) [Compound 29] | 3.2
CC[C@H]1C[C@@H](C(=O)NCCNC(=O)CCOCCOCCOCCOCCOCCOCCOCCOCCOCCOCCOCCOCCOCCC(=O)NCCNC(=O)[C@@H]2C[C@H](CC)[C@@H](O[C@@H]3O[C@@H](C)[C@@H](O)[C@@H](O)[C@@H]3O)[C@H](O[C@@H]3O[C@H](CO)[C@H](O)[C@H](O[C@@H](CC4CCCCC4)C(=O)O)[C@H]3NC(C)=O)C2)C[C@@H](O[C@@H]2O[C@H](CO)[C@H](O)[C@H](O[C@@H](CC3CCCCC3)C(=O)O)[C@H]2NC(C)=O)[C@@H]1O[C@@H]1O[C@@H](C)[C@@H](O)[C@@H](O)[C@@H]1O [Compound 14] | 6.6
CC[C@H]1C[C@@H](C(=O)NCCNC(=O)NCCNC(=O)[C@@H]2C[C@H](CC)[C@@H](O[C@@H]3O[C@@H](C)[C@@H](O)[C@@H](O)[C@@H]3O)[C@H](O[C@@H]3O[C@H](CO)[C@H](O)[C@H](O[C@@H](CC4CCCCC4)C(=O)O)[C@H]3NC(C)=O)C2)C[C@@H](O[C@@H]2O[C@H](CO)[C@H](O)[C@H](O[C@@H](CC3CCCCC3)C(=O)O)[C@H]2NC(C)=O)[C@@H]1O[C@@H]1O[C@@H](C)[C@@H](O)[C@@H](O)[C@@H]1O [Compound 32] | 8.8
CC[C@H]1C[C@@H](C(=O)NCCNC(=O)CCOCCOCCOCCOCCOCCOCCOCCOCCOCCOCCOCCOCCOCCOCCOCCOCCOCCOCCOCCOCCOCCOCCOCCOCCOCCC(=O)NCCNC(=O)[C@@H]2C[C@H](CC)[C@@H](O[C@@H]3O[C@@H](C)[C@@H](O)[C@@H](O)[C@@H]3O)[C@H](O[C@@H]3O[C@H](CO)[C@H](O)[C@H](O[C@@H](CC4CCCCC4)C(=O)O)[C@H]3NC(C)=O)C2)C[C@@H](O[C@@H]2O[C@H](CO)[C@H](O)[C@H](O[C@@H](CC3CCCCC3)C(=O)O)[C@H]2NC(C)=O)[C@@H]1O[C@@H]1O[C@@H](C)[C@@H](O)[C@@H](O)[C@@H]1O [Compound 12] | 3.7
CC[C@H]1CC(C(=O)NCCNC(=O)CCC(=O)NCCNC(=O)[C@@H]2C[C@H](CC)[C@@H](O[C@@H]3O[C@@H](C)[C@@H](O)[C@@H](O)[C@@H]3O)[C@H](O[C@@H]3O[C@H](CO)[C@H](O)[C@H](O[C@@H](CC4CCCCC4)C(=O)O)[C@H]3NC(C)=O)C2)C[C@@H](O[C@@H]2O[C@H](CO)[C@H](O)[C@H](O[C@@H](CC3CCCCC3)C(=O)O)[C@H]2NC(C)=O)[C@@H]1O[C@@H]1O[C@@H](C)[C@@H](O)[C@@H](O)[C@@H]1O (stereo partly shown) [Compound 19] | 10.2
CC[C@H]1C[C@@H](C(=O)NCCNC(=O)CCOCCOCCOCCOCCC(=O)NCCNC(=O)[C@@H]2C[C@H](CC)[C@@H](O[C@@H]3O[C@@H](C)[C@@H](O)[C@@H](O)[C@@H]3O)[C@H](O[C@@H]3O[C@H](CO)[C@H](O)[C@H](O[C@@H](CC4CCCCC4)C(=O)N4CCC4)[C@H]3NC(C)=O)C2)C[C@@H](O[C@@H]2O[C@H](CO)[C@H](O)[C@H](O[C@@H](CC3CCCCC3)C(=O)N3CCC3)[C@H]2NC(C)=O)[C@@H]1O[C@@H]1O[C@@H](C)[C@@H](O)[C@@H](O)[C@@H]1O [Compound 23] | 2.8
CC[C@H]1C[C@@H](C(=O)NCCNC(=O)Cn2cc(C(=O)NCCNC(=O)[C@@H]3C[C@H](CC)[C@@H](O[C@@H]4O[C@@H](C)[C@@H](O)[C@@H](O)[C@@H]4O)[C@H](O[C@@H]4O[C@H](CO)[C@H](O)[C@H](O[C@@H](CC5CCCCC5)C(=O)O)[C@H]4NC(C)=O)C3)nn2)C[C@@H](O[C@@H]2O[C@H](CO)[C@H](O)[C@H](O[C@@H](CC3CCCCC3)C(=O)O)[C@H]2NC(C)=O)[C@@H]1O[C@@H]1O[C@@H](C)[C@@H](O)[C@@H](O)[C@@H]1O [Compound 31] | 3.3
CC[C@H]1C[C@@H](C(=O)NCCNC(=O)CCOCCOCCOCCOCCOCCOCCOCCOCCOCCOCCC(=O)NCCNC(=O)[C@@H]2C[C@H](CC)[C@@H](O[C@@H]3O[C@@H](C)[C@@H](O)[C@@H](O)[C@@H]3O)[C@H](O[C@@H]3O[C@H](CO)[C@H](O)[C@H](O[C@@H](CC4CCCCC4)C(=O)O)[C@H]3NC(C)=O)C2)C[C@@H](O[C@@H]2O[C@H](CO)[C@H](O)[C@H](O[C@@H](CC3CCCCC3)C(=O)O)[C@H]2NC(C)=O)[C@@H]1O[C@@H]1O[C@@H](C)[C@@H](O)[C@@H](O)[C@@H]1O [Compound 15] | 6

Further compounds by falling Kd, results first:

Kd [nM] | SMILES
8.5 | CC[C@H]1C[C@@H](C(=O)NCCNC(=O)CCOCCOCCOCCOCCOCCOCCOCCOCCOCCOCCOCCOCCOCCOCCOCCOCCOCCC(=O)NCCNC(=O)[C@@H]2C[C@H](CC)[C@@H](O[C@@H]3O[C@@H](C)[C@@H](O)[C@@H](O)[C@@H]3O)[C@H](O[C@@H]3O[C@H](CO)[C@H](O)[C@H](O[C@@H](CC4CCCCC4)C(=O)O)[C@H]3NC(C)=O)C2)C[C@@H](O[C@@H]2O[C@H](CO)[C@H](O)[C@H](O[C@@H](CC3CCCCC3)C(=O)O)[C@H]2NC(C)=O)[C@@H]1O[C@@H]1O[C@@H](C)[C@@H](O)[C@@H](O)[C@@H]1O [Compound 11]
4.7 | CC[C@H]1C[C@@H](C(=O)NCCNC(=O)CCOCCOCCOCCOCCOCCOCCOCCOCCOCCOCCOCCOCCOCCOCCOCCOCCOCCOCCOCCOCCOCCC(=O)NCCNC(=O)[C@@H]2C[C@H](CC)[C@@H](O[C@@H]3O[C@@H](C)[C@@H](O)[C@@H](O)[C@@H]3O)[C@H](O[C@@H]3O[C@H](CO)[C@H](O)[C@H](O[C@@H](CC4CCCCC4)C(=O)O)[C@H]3NC(C)=O)C2)C[C@@H](O[C@@H]2O[C@H](CO)[C@H](O)[C@H](O[C@@H](CC3CCCCC3)C(=O)O)[C@H]2NC(C)=O)[C@@H]1O[C@@H]1O[C@@H](C)[C@@H](O)[C@@H](O)[C@@H]1O [Compound 13]
3.9 | CCC1CC(C(=O)NCCNC(=O)c2cn(CCOCCC(=O)NCCCC[C@H](NC(=O)CCOCCn3cc(C(=O)NCCNC(=O)C4CC(CC)[C@@H](O[C@@H]5OC(C)[C@@H](O)[C@H](O)C5O)[C@H](O[C@@H]5O[C@@H](CO)[C@H](O)C(O[C@@H](CC6CCCCC6)C(=O)O)C5NC(C)=O)C4)nn3)C(=O)OCc3ccccc3)nn2)C[C@@H](O[C@@H]2O[C@@H](CO)[C@H](O)C(O[C@@H](CC3CCCCC3)C(=O)O)C2NC(C)=O)[C@@H]1O[C@@H]1OC(C)[C@@H](O)[C@H](O)C1O (stereo partly shown) [Compound 37]
3.2 | CC[C@H]1C[C@@H](C(=O)NCCNC(=O)c2cn(CCOCCOCCn3cc(C(=O)NCCNC(=O)[C@@H]4C[C@H](CC)[C@@H](O[C@@H]5O[C@@H](C)[C@@H](O)[C@@H](O)[C@@H]5O)[C@H](O[C@@H]5O[C@H](CO)[C@H](O)[C@H](O[C@@H](CC6CCCCC6)C(=O)O)[C@H]5NC(C)=O)C4)nn3)nn2)C[C@@H](O[C@@H]2O[C@H](CO)[C@H](O)[C@H](O[C@@H](CC3CCCCC3)C(=O)O)[C@H]2NC(C)=O)[C@@H]1O[C@@H]1O[C@@H](C)[C@@H](O)[C@@H](O)[C@@H]1O [Compound 28]
3 | CC[C@H]1C[C@@H](C(=O)NCCNC(=O)CCOCCOCCC(=O)NCCNC(=O)[C@@H]2C[C@H](CC)[C@@H](O[C@@H]3O[C@@H](C)[C@@H](O)[C@@H](O)[C@@H]3O)[C@H](O[C@@H]3O[C@H](CO)[C@H](O)[C@H](O[C@@H](CC4CCCCC4)C(=O)N4CCC4)[C@H]3NC(C)=O)C2)C[C@@H](O[C@@H]2O[C@H](CO)[C@H](O)[C@H](O[C@@H](CC3CCCCC3)C(=O)N3CCC3)[C@H]2NC(C)=O)[C@@H]1O[C@@H]1O[C@@H](C)[C@@H](O)[C@@H](O)[C@@H]1O [Compound 25]
1.5 | CCC1CC(C(=O)NCCNC(=O)CCC(=O)NCCN(CCNC(=O)CCC(=O)NCCNC(=O)C2CC(CC)C(OC3OC(C)C(O)C(O)C3O)C(OC3OC(CO)C(O)C(OC(CC4CCCCC4)C(=O)O)C3NC(C)=O)C2)CCNC(=O)CCC(=O)NCCNC(=O)C2CC(CC)C(OC3OC(C)C(O)C(O)C3O)C(OC3OC(CO)C(O)C(OC(CC4CCCCC4)C(=O)O)C3NC(C)=O)C2)CC(OC2OC(CO)C(O)C(OC(CC3CCCCC3)C(=O)O)C2NC(C)=O)C1OC1OC(C)C(O)C(O)C1O (stereo not shown) [Compound 42]
0.8 | CC[C@H]1C[C@@H](C(=O)NCCNC(=O)CCOCCOCCOCCOCCOCCOCCOCCOCCOCCOCCC(=O)NCCNC(=O)[C@@H]2C[C@H](CC)[C@@H](O[C@@H]3O[C@@H](C)[C@@H](O)[C@@H](O)[C@@H]3O)[C@H](O[C@@H]3O[C@H](CO)[C@H](O)[C@H](O[C@@H](CC4CCCCC4)C(=O)N4CCC4)[C@H]3NC(C)=O)C2)C[C@@H](O[C@@H]2O[C@H](CO)[C@H](O)[C@H](O[C@@H](CC3CCCCC3)C(=O)N3CCC3)[C@H]2NC(C)=O)[C@@H]1O[C@@H]1O[C@@H](C)[C@@H](O)[C@@H](O)[C@@H]1O [Compound 20]

From patent US20220257775A1 (GLYCOMIMETICS, INC., priority 2019, published 2022)
